In patent publication US4416884A, “Piperazinylbenzoheterocyclic compounds” (Otsuka Pharmaceutical Co., Ltd., priority 1978, dated 1983):
In brackets after ≈: the same amount, converted by molar mass. Where two headings read alike, the source gives them in different places.

Columns and labels:
[1] = system: Bacillus subtilis PCI 219; assay: antimicrobial activity, serial dilution method on agar plate; format: cell-based
Summary of the method: (§1)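 Two inoculum levels used: 1×10^8 cells/ml (O.D. 660 mμ = 0.07–0.16) and a diluted 1×10^6 cells/ml preparation. Minimum inhibitory concentrations in mcg/ml read from serial dilution on Heart Infusion agar plates.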

Enterobacter cloacae = assay: as above; format: cell-based
Summary of the method: as §1

[2] = system: Escherichia Coli NIHJ JC-2 (IFO 12734); assay: as above; format: cell-based; conditions: Escherichia coli, read-out: Minimum Inhibitory Concentration
Summary of the method: as §1

Escherichia Coli NIHJ = assay: as above; format: cell-based; conditions: read-out: Minimum Inhibitory Concentration
Summary of the method: as §1

Hafnia alvei IFO 3731 = assay: as above; format: cell-based; conditions: read-out: Minimum Inhibitory Concentration
Summary of the method: as §1

[3] = system: Klebsiella pneumoniae ST-101; assay: as above; format: cell-based
Summary of the method: as §1

Klebsiella pneumoniae = assay: as above; format: cell-based
Summary of the method: as §1

[4] = system: Proteus morganii IID Kono; assay: as above; format: cell-based; conditions: Morganella morganii
Summary of the method: as §1

Proteus rettgeri NIH 96 = assay: as above; format: cell-based; conditions: Providencia rettgeri
Summary of the method: as §1

[5] = system: Proteus vulgaris IID OX-19; assay: as above; format: cell-based; conditions: read-out: Minimum Inhibitory Concentration
Summary of the method: as §1

[6] = system: Pseudomonas aeruginosa E-2; assay: as above; format: cell-based
Summary of the method: as §1

[7] = system: Pseudomonas maltophilia IFO 12692; assay: as above; format: cell-based; conditions: Stenotrophomonas maltophilia
Summary of the method: as §1

[8] = system: Pseudomonas putida IFO 13696; assay: as above; format: cell-based; conditions: read-out: Minimum Inhibitory Concentration
Summary of the method: as §1

[9] = system: Salmonella typhi 0-901 (NCTC 8393); assay: as above; format: cell-based; conditions: Salmonella enterica
Summary of the method: as §1

[10] = system: Serattia marcescens IFO 12648; assay: as above; format: cell-based
Summary of the method: as §1

Shigella Sonnei EW 33 = assay: as above; format: cell-based; conditions: read-out: Minimum Inhibitory Concentration
Summary of the method: as §1

[11] = system: Streptococcus pneumoniae Type III; assay: as above; format: cell-based
Summary of the method: as §1

[12] = system: Streptococcus pneumoniae Type I; assay: as above; format: cell-based
Summary of the method: as §1

[13] = system: Streptococcus pyogenes IID Cook; assay: as above; format: cell-based
Summary of the method: as §1

[14] = system: Streptococcus pyogenes IID S-23; assay: as above; format: cell-based
Summary of the method: as §1

[15] = system: Yersinia enterocolitica 0-3; assay: as above; format: cell-based
Summary of the method: as §1

in vitro = conditions: human
Experimental: A 1/15 mol/l phosphate buffer was added to powder of Moni-Trol 1 (dehydrated preparation of human serum, a product of Midori Juji Co., Ltd.) to prepare a composition having the same serum protein concentration as natural human serum and this preparation was labeled "100% human serum", an aliquot of the "100% human serum" preparation was mixed with the same volume of the above buffer to prepare "50% human serum" and another aliquot was mixed with 4 times as much as its volume of the buffer to prepare "20% human serum".

[16] = read-out: Minimum Inhibitory Concentration, inoculum 1 × 10^6 cells/ml
[17] = read-out: Minimum Inhibitory Concentration, inoculum 1 × 10^8 cells/ml
[18] = IFO3731, inoculum 1 × 10^6 cells/ml
[19] = IFO3731, inoculum 1 × 10^8 cells/ml
[20] = IFO13696, inoculum 1 × 10^6 cells/ml
[21] = IFO13696, inoculum 1 × 10^8 cells/ml
[22] = inoculum 1 × 10^6 cells/ml, read-out: Minimum Inhibitory Concentration
[23] = inoculum 1 × 10^8 cells/ml, read-out: Minimum Inhibitory Concentration

SMILES: CCn1cc(C(=O)O)c(=O)c2ccc(C)nc21 [E]
- MIC ([1]; PCI219, read-out: Minimum Inhibitory Concentration, inoculum 1 × 10^6 cells/ml): 3.1 µg/mL (≈ 13.3 µM)
- MIC ([1]; PCI219, read-out: Minimum Inhibitory Concentration, inoculum 1 × 10^8 cells/ml): 6.3 µg/mL (≈ 27.1 µM)
- MIC (Enterobacter cloacae; [16]): 3.1 µg/mL (≈ 13.3 µM)
- MIC (Enterobacter cloacae; [17]): 3.1 µg/mL (≈ 13.3 µM)
- MIC ([2]; inoculum 1 × 10^6 cells/ml): 3.1 µg/mL (≈ 13.3 µM)
- MIC ([2]; inoculum 1 × 10^8 cells/ml): 3.1 µg/mL (≈ 13.3 µM)
- MIC (Escherichia Coli NIHJ; inoculum 1 × 10^6 cells/ml): 1.6 µg/mL (≈ 6.89 µM)
- MIC (Escherichia Coli NIHJ; inoculum 1 × 10^8 cells/ml): 3.1 µg/mL (≈ 13.3 µM)
- MIC (Hafnia alvei IFO 3731; [18]): 50 µg/mL (≈ 215 µM)
- MIC (Hafnia alvei IFO 3731; [19]): 100 µg/mL (≈ 431 µM)
- MIC ([3]; ST101, read-out: Minimum Inhibitory Concentration, inoculum 1 × 10^6 cells/ml): 1.6 µg/mL (≈ 6.89 µM)
- MIC ([3]; ST101, read-out: Minimum Inhibitory Concentration, inoculum 1 × 10^8 cells/ml): 1.6 µg/mL (≈ 6.89 µM)
- MIC (Klebsiella pneumoniae; [16]): 3.1 µg/mL (≈ 13.3 µM)
- MIC (Klebsiella pneumoniae; [17]): 3.1 µg/mL (≈ 13.3 µM)
- MIC [4, 16]: 3.1 µg/mL (≈ 13.3 µM)
- MIC [4, 17]: 6.3 µg/mL (≈ 27.1 µM)
- MIC (Proteus rettgeri NIH 96; NIH96, read-out: Minimum Inhibitory Concentration, inoculum 1 × 10^6 cells/ml): 0.8 µg/mL (≈ 3.44 µM)
- MIC (Proteus rettgeri NIH 96; NIH96, read-out: Minimum Inhibitory Concentration, inoculum 1 × 10^8 cells/ml): 1.6 µg/mL (≈ 6.89 µM)
- MIC ([5]; IIDOX19, inoculum 1 × 10^6 cells/ml): 3.1 µg/mL (≈ 13.3 µM)
- MIC ([5]; IIDOX19, inoculum 1 × 10^8 cells/ml): 3.1 µg/mL (≈ 13.3 µM)
- MIC ([6]; E2, read-out: Minimum Inhibitory Concentration, inoculum 1 × 10^6 cells/ml): > 100 µg/mL
- MIC ([6]; E2, read-out: Minimum Inhibitory Concentration, inoculum 1 × 10^8 cells/ml): > 100 µg/mL
- MIC ([7]; IFO12692, read-out: Minimum Inhibitory Concentration): > 100 µg/mL
- MIC [8, 20]: 50 µg/mL (≈ 215 µM)
- MIC [8, 21]: 100 µg/mL (≈ 431 µM)
- MIC [9, 16]: 3.1 µg/mL (≈ 13.3 µM)
- MIC [9, 17]: 3.1 µg/mL (≈ 13.3 µM)
- MIC [10, 16]: 3.1 µg/mL (≈ 13.3 µM)
- MIC [10, 17]: 3.1 µg/mL (≈ 13.3 µM)
- MIC (Shigella Sonnei EW 33; inoculum 1 × 10^6 cells/ml): 3.1 µg/mL (≈ 13.3 µM)
- MIC (Shigella Sonnei EW 33; inoculum 1 × 10^8 cells/ml): 3.1 µg/mL (≈ 13.3 µM)
- MIC [11, 16]: > 100 µg/mL
- MIC [11, 17]: > 100 µg/mL
- MIC [12, 16]: > 100 µg/mL
- MIC [12, 17]: > 100 µg/mL
- MIC [13, 16]: > 100 µg/mL
- MIC [13, 17]: > 100 µg/mL
- MIC ([14]; IIDS23, read-out: Minimum Inhibitory Concentration, inoculum 1 × 10^6 cells/ml): > 100 µg/mL
- MIC ([14]; IIDS23, read-out: Minimum Inhibitory Concentration, inoculum 1 × 10^8 cells/ml): > 100 µg/mL
- MIC ([15]; Yersinia enterocolitica, 03, read-out: Minimum Inhibitory Concentration, inoculum 1 × 10^6 cells/ml): 1.6 µg/mL (≈ 6.89 µM)
- MIC ([15]; Yersinia enterocolitica, 03, read-out: Minimum Inhibitory Concentration, inoculum 1 × 10^8 cells/ml): 12.5 µg/mL (≈ 53.8 µM)
- fraction unbound at 2 h (in vitro; 10% human serum): 0.528
- fraction unbound at 2 h (in vitro; 10% human serum, Inactivation Ratio): 0.587
- fraction unbound at 2 h (in vitro; 20% human serum): 0.608
- fraction unbound at 2 h (in vitro; 20% human serum, Inactivation Ratio): 0.565
- fraction unbound at 2 h (in vitro; 50% human serum): 0.376
- fraction unbound at 2 h (in vitro; 50% human serum, Inactivation Ratio): 0.387
- fraction unbound at 2 h (in vitro; 100% human serum): 0.24
- fraction unbound at 2 h (in vitro; 100% human serum, Inactivation Ratio): 0.387

SMILES: CC1CCc2cc(F)cc3c(=O)c(C(=O)O)cn1c23 (stereo not shown) [F]
- MIC ([1]; PCI219, inoculum 1 × 10^6 cells/ml, read-out: Minimum Inhibitory Concentration): 0.2 µg/mL (≈ 0.766 µM)
- MIC ([1]; PCI219, inoculum 1 × 10^8 cells/ml, read-out: Minimum Inhibitory Concentration): 0.4 µg/mL (≈ 1.53 µM)
- MIC (Enterobacter cloacae; [22]): 0.2 µg/mL (≈ 0.766 µM)
- MIC (Enterobacter cloacae; [23]): 0.4 µg/mL (≈ 1.53 µM)
- MIC ([2]; inoculum 1 × 10^6 cells/ml): 0.4 µg/mL (≈ 1.53 µM)
- MIC ([2]; inoculum 1 × 10^8 cells/ml): 0.8 µg/mL (≈ 3.06 µM)
- MIC (Escherichia Coli NIHJ; inoculum 1 × 10^6 cells/ml): 0.1 µg/mL (≈ 0.383 µM)
- MIC (Escherichia Coli NIHJ; inoculum 1 × 10^8 cells/ml): 0.2 µg/mL (≈ 0.766 µM)
- MIC (Hafnia alvei IFO 3731; [18]): 125 µg/mL (≈ 478 µM)
- MIC (Hafnia alvei IFO 3731; [19]): 25 µg/mL (≈ 95.7 µM)
- MIC ([3]; ST101, inoculum 1 × 10^6 cells/ml, read-out: Minimum Inhibitory Concentration): 0.1 µg/mL (≈ 0.383 µM)
- MIC ([3]; ST101, inoculum 1 × 10^8 cells/ml, read-out: Minimum Inhibitory Concentration): 0.2 µg/mL (≈ 0.766 µM)
- MIC (Klebsiella pneumoniae; [22]): 0.4 µg/mL (≈ 1.53 µM)
- MIC (Klebsiella pneumoniae; [23]): 0.8 µg/mL (≈ 3.06 µM)
- MIC [4, 22]: 0.4 µg/mL (≈ 1.53 µM)
- MIC [4, 23]: 0.8 µg/mL (≈ 3.06 µM)
- MIC (Proteus rettgeri NIH 96; NIH96, inoculum 1 × 10^6 cells/ml, read-out: Minimum Inhibitory Concentration): 0.1 µg/mL (≈ 0.383 µM)
- MIC (Proteus rettgeri NIH 96; NIH96, inoculum 1 × 10^8 cells/ml, read-out: Minimum Inhibitory Concentration): 0.2 µg/mL (≈ 0.766 µM)
- MIC ([6]; E2, inoculum 1 × 10^6 cells/ml, read-out: Minimum Inhibitory Concentration): 50 µg/mL (≈ 191 µM)
- MIC ([6]; E2, inoculum 1 × 10^8 cells/ml, read-out: Minimum Inhibitory Concentration): 50 µg/mL (≈ 191 µM)
- MIC ([7]; IFO12692, inoculum 1 × 10^8 cells/ml, read-out: Minimum Inhibitory Concentration): 25 µg/mL (≈ 95.7 µM)
- MIC [8, 20]: 125 µg/mL (≈ 478 µM)
- MIC [8, 21]: 25 µg/mL (≈ 95.7 µM)
- MIC [9, 16]: 0.2 µg/mL (≈ 0.766 µM)
- MIC [9, 17]: 0.2 µg/mL (≈ 0.766 µM)
- MIC [10, 22]: 0.4 µg/mL (≈ 1.53 µM)
- MIC [10, 23]: 0.8 µg/mL (≈ 3.06 µM)
- MIC (Shigella Sonnei EW 33; inoculum 1 × 10^6 cells/ml): 0.8 µg/mL (≈ 3.06 µM)
- MIC (Shigella Sonnei EW 33; inoculum 1 × 10^8 cells/ml): 0.8 µg/mL (≈ 3.06 µM)
- MIC [11, 23]: > 100 µg/mL
- MIC [12, 23]: > 100 µg/mL
- MIC [13, 23]: > 100 µg/mL
- MIC ([14]; IIDS23, inoculum 1 × 10^6 cells/ml, read-out: Minimum Inhibitory Concentration): > 100 µg/mL
- MIC ([14]; IIDS23, inoculum 1 × 10^8 cells/ml, read-out: Minimum Inhibitory Concentration): > 100 µg/mL
- MIC ([15]; Yersinia enterocolitica, 03, inoculum 1 × 10^6 cells/ml, read-out: Minimum Inhibitory Concentration): 0.4 µg/mL (≈ 1.53 µM)
- MIC ([15]; Yersinia enterocolitica, 03, inoculum 1 × 10^8 cells/ml, read-out: Minimum Inhibitory Concentration): 0.8 µg/mL (≈ 3.06 µM)
